Results as given in US7012078B2, “2-aminopyridines containing fused ring substituents” (Pfizer Inc., priority 1997, dated 2006).
Structures can show the parent of a compound that is named as a salt.

melting point | SMILES
132 to 138 °C | COc1ccc2[nH]c3c(c2c1)CCN(CCc1ccc(-c2cccc(N)n2)c2ccccc12)C3
220 to 228 °C | Nc1cccc(-c2ccc(OC3CN4CCC3CC4)c3ccccc23)n1 (centres unmarked) (as salt: hydrochloride)
260 to 275 °C | CN1C2CCC1CC(Oc1ccc(-c3cccc(N)n3)c3ccccc13)C2 (centres unmarked) (as salt: hydrochloride)
80 to 105 °C | Nc1cccc(-c2ccc(CCN3CCN(CCc4ccccc4)CC3)c3ccccc23)n1 (as salt: hydrochloride) [Example 1, 6-{4-[2-(4-Phenethyl-piperazin-1-yl)-ethyl]-naphthalen-1-yl)-pyridin-2-ylamine]
250 to 260 °C | Nc1cccc(-c2ccc(CCN3CC4C(N)C4C3)c3ccccc23)n1 (centres unmarked) (as salt: hydrochloride) [Example 2, 3-{2-[4-(6-Amino-pyridin-2-yl)-naphthalen-1-yl]-ethyl}-3-aza-bicyclo[3.1.0]hex-6-ylamine]
225 to 235 °C | Nc1cccc(-c2ccc(CCN3CCC(C(c4ccccc4)c4ccccc4)CC3)c3ccccc23)n1 (as salt: hydrochloride) [Example 3, 6-{4-[2-(4-Benzhydryl-piperidin-1-yl)-ethyl]-naphthalen-1-yl}-pyridin-2-ylamine]
80 to 110 °C | Nc1cccc(-c2ccc(CCNCc3ccc4c(c3)OCO4)c3ccccc23)n1 (as salt: hydrochloride) [Example 6, 6-(4-{2-[(Benzo[1,3]dioxol-5-ylmethyl)-amino]-ethyl}-naphthalen-1-yl)-pyridin-2-ylamine]
70 to 80 °C | Nc1cccc(-c2ccc(CCNCc3ccc(F)c(F)c3)c3ccccc23)n1 (as salt: hydrochloride) [Example 7, 6-{4-[2-(3,4-Difluoro-benzylamino)-ethyl]-naphthalen-1-yl}-pyridin-2-ylamine]
75 to 95 °C | COc1cc(CNCCc2ccc(-c3cccc(N)n3)c3ccccc23)cc(OC)c1OC (as salt: hydrochloride) [Example 8, 6-{4-[2-(3,4,5-Trimethoxy-benzylamino)-ethyl]-naphthalen-1-yl}-pyridin-2-ylamine]
60 to 75 °C | Nc1cccc(-c2ccc(CCNCc3cccc(Cl)c3)c3ccccc23)n1 (as salt: hydrochloride) [Example 9, 6-{4-[2-(3-Chloro-benzylamino)-ethyl]-naphthalen-1-yl}-pyridin-2-ylamine]
185 to 205 °C | Nc1cccc(-c2ccc(CCNCc3ccco3)c3ccccc23)n1 (as salt: hydrochloride) [Example 10, 6-(4-{2-[(Furan-2-ylmethyl)-amino]-ethyl}-naphthalen-1-yl)-pyridin-2-ylamine]
145 to 170 °C | Nc1cccc(-c2ccc(CCNCc3ccc(Cl)c(Cl)c3)c3ccccc23)n1 (as salt: hydrochloride) [Example 11, 6-{4-[2-(3,4-Dichloro-benzylamino)-ethyl]-naphthalen-1-yl}-pyridin-2-ylamine]
60 to 80 °C | Nc1cccc(-c2ccc(OCCNCc3ccc4c(c3)OCO4)c3ccccc23)n1 (as salt: hydrochloride) [Example 14, 6-(4-{2-[(Benzo[1,3]dioxol-5-ylmethyl)-amino]-ethoxy}-naphthalen-1-yl)-pyridin-2-ylamine]
130 to 150 °C | COc1cc2c(cc1OC)CN(CCOc1ccc(-c3cccc(N)n3)c3ccccc13)CC2 (as salt: hydrochloride) [Example 15, 6-{4-[2-(6,7-Dimethoxy-3,4-dihydro-1H-isoquinolin-2-yl)-ethoxy]-naphthalen-1-yl}-pyridin-2-ylamine]
140 to 155 °C | Nc1cccc(-c2ccc(OCCN3CC4C(N)C4C3)c3ccccc23)n1 (centres unmarked) (as salt: hydrochloride) [Example 16, 3-{2-[4-(6-Amino-pyridin-2-yl)-naphthalen-1-yloxy]-ethyl}-3-aza-bicyclo[3.1.0]hex-6-ylamine]
45 to 80 °C | Nc1cccc(-c2ccc(OCCN3CCN(CCc4ccccc4)CC3)c3ccccc23)n1 (as salt: hydrochloride) [Example 17, 6-{4-[2-(4-Phenethyl-piperazin-1-yl)-ethoxy]-naphthalen-1-yl}-pyridin-2-ylamine]
70 to 90 °C | Nc1cccc(-c2ccc(OCCN3CCC(N)C3)c3ccccc23)n1 (centres unmarked) (as salt: hydrochloride) [Example 18, 6-{4-[2-(3-Amino-pyrrolidin-1-yl)-ethoxy]-naphthalen-1-yl}-pyridin-2-ylamine]
265 to 285 °C (dec.) | Nc1cccc(-c2ccc(OC3CCN(Cc4ccccc4)CC3)c3ccccc23)n1 (as salt: hydrochloride) [Example 24, 6-[4-(1-Benzyl-piperidin-4-yloxy)-naphthalen-1-yl]-pyridin-2-ylamine]
160 to 170 °C | Nc1cccc(-c2ccc(OC3CCN(Cc4ccccc4)C3)c3ccccc23)n1 (centres unmarked) (as salt: hydrochloride) [Example 25, 6-[4-(1-Benzyl-pyrrolidin-3-yloxy)-naphthalen-1-yl]-pyridin-2-ylamine]

melting point | SMILES
65 to 75 °C | Nc1cccc(-c2ccc(OC3CCNCC3)c3ccccc23)n1 (as salt: hydrochloride) [Example 27, 6-[4-(Piperidin-4-yloxy)-naphthalen-1-yl]-Pyridin-2-ylamine]
60 to 70 °C | Nc1cccc(-c2ccc(OC3CCNC3)c3ccccc23)n1 (centres unmarked) (as salt: hydrochloride) [Example 28, 6-[4-(Pyrrolidin-3-yloxy)-naphthalen-1-yl]-pyridin-2-ylamine]
198 to 210 °C | CC(C)CN1CCC(Oc2ccc(-c3cccc(N)n3)c3ccccc23)CC1 (as salt: hydrochloride) [Example 29, 6-[4-(1-Isobutyl-piperidin-4-yloxy)-naphthalen-1-yl]-pyridin-2-ylamine]
178 to 195 °C | Nc1cccc(-c2ccc(OC3CCN(Cc4ccco4)CC3)c3ccccc23)n1 (as salt: hydrochloride) [Example 30, 6-[4-(1-Furan-2-ylmethyl-piperidin-4-yloxy)-naphthalen-1-yl]-pyridin-2-ylamine]
78 to 85 °C | CC(C)CN1CCC(Oc2ccc(-c3cccc(N)n3)c3ccccc23)C1 (centres unmarked) (as salt: hydrochloride) [Example 31, 6-[4-(1-Isobutyl-pyrrolidin-3-yloxy)-naphthalen-1-yl]-pyridin-2-ylamine]
140 to 160 °C | Nc1cccc(-c2ccc(OC3CCN(Cc4ccco4)C3)c3ccccc23)n1 (centres unmarked) (as salt: hydrochloride) [Example 32, 6-[4-(1-Furan-2-ylmethyl-pyrrolidin-3-yloxy)-naphthalen-1-yl]-pyridin-2-ylamine]
179 to 187 °C | CN1CCC(Oc2ccc(-c3cccc(N)n3)c3ccccc23)CC1 (as salt: hydrochloride) [Example 33, 6-[4-(1-Methyl-piperidin-4-yloxy)-naphthalen-1-yl]-pyridin-2-ylamine]
105 to 120 °C | CN(C)CCCOc1ccc(-c2cccc(N)n2)c2ccccc12 (as salt: hydrochloride) [Example 35, 6-[4-(3-Dimethylamino-propoxy)-naphthalen-1-yl]-pyridin-2-ylamine]
65 to 90 °C | CN(CCOc1ccc(-c2cccc(N)n2)c2c1CCCC2)C(C)(C)C (as salt: hydrochloride) [Example 39, 6-{4-[2-(tert-Butyl-methyl-amino)-ethoxy]-5,6,7,8-tetrahydro-naphthalen-1-yl}-pyridin-2-ylamine]
50 to 60 °C | CC(C)N(CCOc1ccc(-c2cccc(N)n2)c2c1CCCC2)C(C)C (as salt: hydrochloride) [Example 40, 6-[4-(2-Diisopropylamino-ethoxy)-5,6,7,8-tetrahydro-naphthalen-1-yl]-pyridin-2-ylamine]
105 to 130 °C | Nc1cccc(-c2ccc(OCCN3CCN(CCc4ccccc4)CC3)c3c2CCC3)n1 (as salt: hydrochloride) [Example 61, 6-[7-[(4-Phenethylpiperazin-1-yl)-ethoxy]-indan-4-yl]-pyridin-2-ylamine]
170 to 190 °C | CC(C)CN1CCN(CCOc2ccc(-c3cccc(N)n3)c3c2CCC3)CC1 (as salt: hydrochloride) [Example 62, 6-[7-[(4-Isobutylpiperazin-1-yl)-ethoxy]-indan-4-yl]-pyridin-2-ylamine]
218 to 230 °C | Nc1cccc(-c2ccc(OC3CCCCC3N)c3ccccc23)n1 (centres unmarked) (as salt: hydrochloride) [Example 63, 6-[4-(2-Amino-cyclohexyloxy)-naphthalen-1-yl]-pyridin-2-ylamine]
164 to 185 °C | Nc1cccc(-c2ccc(OCC3CCCNC3)c3ccccc23)n1 (centres unmarked) (as salt: hydrochloride) [Example 64, 6-[4-(Piperidin-3-ylmethoxy)-naphthalen-1-yl]-pyridin-2-ylamine]
133 to 148 °C | CC(C)CN1CC(Oc2ccc(-c3cccc(N)n3)c3ccccc23)C1 (as salt: hydrochloride) [Example 65, 6-[4-(1-Isobutyl-azetidin-3-yloxy)-naphthalen-1-yl]-pyridin-2-ylamine]
75 to 90 °C | Nc1cccc(-c2ccc(OC3CN(Cc4ccco4)C3)c3ccccc23)n1 (as salt: hydrochloride) [Example 67, 6-[4-(1-Furan-2-ylmethyl-azetidin-3-yloxy)-naphthalen-1-yl]-pyridin-2-ylamine]
150 to 180 °C | Nc1cccc(-c2ccc(OC3CN(Cc4cccnc4)C3)c3ccccc23)n1 (as salt: hydrochloride) [Example 72, 6-[4-(1-Pyridin-3-ylmethyl-azetidin-3-yloxy)-naphthalen-1-yl]-pyridin-2-ylamine]
88 to 110 °C | Nc1cccc(-c2ccc(OCC3CNC3)c3ccccc23)n1 (as salt: hydrochloride) [Example 73, 6-[4-(Azetidin-3-ylmethoxy)-naphthalen-1-yl]-pyridin-2-ylamine]

SMILES | melting point
CN(C)CCCCOc1ccc(-c2cccc(N)n2)c2ccccc12 (as salt: hydrochloride) [Example 26, 6-[4-(4-Dimethylamino-butoxy)-naphthalen-1-yl]-pyridin-2-ylamine] | 78 to 90 °C
